# Measurements published in ChEMBL document CHEMBL1152062, “Novel 4,5,6,7-tetrahydrobenzothiazole dopamine agonists display very low stereoselectivity in their interaction with dopamine receptors” (Bioorg Med Chem Lett, 1991).
# Key:
# Rattus norvegicus [1] = experiment: Percent reversal of the increase in rat striatum DOPA accumulation produced by pretreatment with GBL (750 mg/kg ip) and NSD 1015 (100 mg/kg) when 2 mg/kg was administered.; format: functional
# Rattus norvegicus [2] = experiment: Percent inhibition of spontaneous DA neuronal firing in the substantia nigra of anesthetized rats was determined.; format: functional
# D(1A) dopamine receptor = D(1A) dopamine receptor (Rattus norvegicus, UniProt P18901); experiment: Affinity of the Compound for Dopamine D1 receptor in rat striatal membrane was determined in vitro using Dopamine Antagonist [3H]SCH-23390 as ligand.; format: cell membranes, Striatum
# Chain of D(1A) dopamine receptor (P18901 whole entry): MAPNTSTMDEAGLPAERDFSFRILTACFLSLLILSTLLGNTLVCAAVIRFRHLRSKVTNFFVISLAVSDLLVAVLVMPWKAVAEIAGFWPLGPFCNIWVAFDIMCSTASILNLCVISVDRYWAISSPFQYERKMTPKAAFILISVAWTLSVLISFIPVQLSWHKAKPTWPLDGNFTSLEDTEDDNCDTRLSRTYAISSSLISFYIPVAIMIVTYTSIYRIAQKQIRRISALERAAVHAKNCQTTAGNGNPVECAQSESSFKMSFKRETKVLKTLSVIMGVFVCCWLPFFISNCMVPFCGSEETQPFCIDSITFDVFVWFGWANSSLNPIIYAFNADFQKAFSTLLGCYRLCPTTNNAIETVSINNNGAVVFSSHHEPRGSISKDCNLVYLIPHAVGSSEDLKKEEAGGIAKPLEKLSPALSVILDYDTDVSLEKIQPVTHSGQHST
# Rattus norvegicus [3] = experiment: Dose required to inhibit the synthesis of DOPA in rat brain was determined intraperitoneally; format: functional; conditions: ip
# D(2) dopamine receptor [4] = biological target: T1, D(2) dopamine receptor (Rattus norvegicus, UniProt P61169); experiment: Affinity of the Compound for Dopamine receptor D2 in rat striatal membrane was determined in vitro using Dopamine agonist [3H]N-propylnorapomorphine as ligand; Value ranges from (80-119); format: cell membranes, Striatum
# T1 sequence (P61169 whole entry): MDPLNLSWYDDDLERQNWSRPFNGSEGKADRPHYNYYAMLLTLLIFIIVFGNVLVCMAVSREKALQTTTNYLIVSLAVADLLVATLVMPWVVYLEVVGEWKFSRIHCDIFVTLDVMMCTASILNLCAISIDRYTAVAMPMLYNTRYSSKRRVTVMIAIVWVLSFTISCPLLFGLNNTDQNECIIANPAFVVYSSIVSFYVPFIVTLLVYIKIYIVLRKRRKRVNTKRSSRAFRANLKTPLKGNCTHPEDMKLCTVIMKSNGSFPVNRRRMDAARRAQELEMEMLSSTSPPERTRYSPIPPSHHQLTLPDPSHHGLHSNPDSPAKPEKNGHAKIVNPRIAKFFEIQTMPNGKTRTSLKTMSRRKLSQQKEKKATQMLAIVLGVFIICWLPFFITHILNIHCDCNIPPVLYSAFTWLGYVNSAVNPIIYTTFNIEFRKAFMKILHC
# D(2) dopamine receptor [5] = biological target: T1, D(2) dopamine receptor; experiment: Affinity of the Compound for Dopamine receptor D2 in rat striatal membrane was determined in vitro using Dopamine Antagonist [3H]spiperone as ligand; Value ranges from (124-550); format: cell membranes, Striatum
# D(2) dopamine receptor [6] = biological target: T1, D(2) dopamine receptor; experiment: Affinity of the Compound for Dopamine receptor D2 in rat striatal membrane was determined in vitro using Dopamine agonist [3H]N-propylnorapomorphine as ligand; Value ranges from (70-150); format: cell membranes, Striatum
# D(2) dopamine receptor [7] = biological target: T1, D(2) dopamine receptor; experiment: Affinity of the Compound for Dopamine receptor D2 in rat striatal membrane was determined in vitro using Dopamine Antagonist [3H]spiperone as ligand; Value ranges from (270-500); format: cell membranes, Striatum
# D(2) dopamine receptor [8] = biological target: T1, D(2) dopamine receptor; experiment: Affinity of the Compound for Dopamine receptor D2 in rat striatal membrane was determined in vitro using Dopamine Antagonist [3H]spiperone as ligand; Value ranges from (580-1050); format: cell membranes, Striatum
# D(2) dopamine receptor [9] = biological target: T1, D(2) dopamine receptor; experiment: Affinity of the Compound for Dopamine receptor D2 in rat striatal membrane was determined in vitro using Dopamine agonist [3H]N-propylnorapomorphine as ligand; Value ranges from (204-360); format: cell membranes, Striatum
IC50 (D(1A) dopamine receptor) [µM],IC50 (D(2) dopamine receptor [4]) [µM],IC50 (D(2) dopamine receptor [5]) [µM],IC50 (D(2) dopamine receptor [6]) [µM],IC50 (D(2) dopamine receptor [7]) [µM],IC50 (D(2) dopamine receptor [8]) [µM],IC50 (D(2) dopamine receptor [9]) [µM],SMILES,Reversal (Rattus norvegicus [1]) [%],Inhibition (Rattus norvegicus [2]) [%],ED50 (Rattus norvegicus [3]) [mg/kg]
–,–,–,–,–,–,–,CN1CCc2cccc3c2[C@H]1Cc1ccc(O)c(O)c1-3 [APOMORPHINE],100,100,–
> 15,0.1,0.32,–,–,–,–,Nc1nc2c(s1)CC(N1CCN(c3ccccn3)CC1)CC2 (racemic),–,97,4.4
> 15,–,–,0.105,0.44,–,–,Nc1nc2c(s1)C[C@H](N1CCN(c3ccccn3)CC1)CC2,–,85,7
> 15,–,–,–,–,0.8,0.28,Nc1nc2c(s1)C[C@@H](N1CCN(c3ccccn3)CC1)CC2,–,100,4.8
